Test [1] relates to EGFR Del19 phosphorylation (pEGFR). Description: Inhibitor activity on EGFR phosphorylation (pEGFR AlphaLISA), Del19. The class given is cell-based. Particulars: 2 hours. In general terms: In Alpha technology, singlet oxygen from a donor bead excites a nearby acceptor bead.
In another test the test system is BaF3 L858R/C797S. The test is described as follows: Ba/F3 cell viability (CellTiter-Glo), EGFR L858R/C797S. The class given is cell-based, murine. Particulars: Mus musculus, 72 hours. On the technique in general: In ATP-based viability assays light output follows the ATP content of the culture.
Test [2] concerns BaF3 ASV (EGFR exon 20 ASV Ins V769_D770). Description: Ba/F3 cell viability (CellTiter-Glo), EGFR exon 20 ASV Ins V769_D770. The class given is cell-based, murine. Particulars: Mus musculus, Ba/F3 EGFR exon 20 ASV Ins V769_D770, 72 hours. The source says: (§1) Cell lines are generated by transducing Ba/F3 cells with retroviruses containing vectors with EGFR WT, EGFR exon 20 NPG Ins D770_N771, EGFR exon 20 ASV Ins V769_D770, EGFR exon 20 SVD Ins D770_N771, or EGFR exon 20 FQEA Ins A763_V764 genes and a puromycin selection marker. Transduced cells are selected with puromycin for 7 days and are then be transferred into culture media without Interleukin 3 (IL3). EGFR WT cells are maintained with supplemental EGF. Surviving cells are confirmed to express EGFR by Western blot and maintained as a pool. The IC50 data are included in Table 6.
(§2) • 1 Cell seeding • 1.1 Cells are harvested from flask into cell culture medium and the cell number counted. • 1.2 Cells are diluted with culture medium to the desired density and 40 L of cell suspension is added into each well of 384-well cell culture plate and the seeding density is 600 cells/well. • 2 Compound preparation and treatment • 2.1 Test compounds are dissolved to 10 mM in a DMSO stock solution. 45 µL of stock solution is transferred to a 384 polypropylene plate (pp-plate). Perform 3-fold, 10-point dilution via transferring 15 L compound into 30 L DMSO using a TECAN (EVO200) liquid handler. • 2.2 Spin plates at room temperature at 1,000 RPM for 1 minute. • 2.3 Transfer 120 nL of diluted compound from compound source plate into the cell plate. • 2.4 After compound treatment for 72 hours, perform CTG detection for compound treatment plates as described in “Detection” section. • 3 Detection • 3.1 Plates are removed from incubators and equilibrated at room temperature for 15 minutes. • 3.2 Thaw the CellTiter Glo reagents and allow to equilibrate to room temperature before the experiment. • 3.3 Add 40 µL of CellTiter-Glo reagent into each well (at 1:1 to culture medium). Then place the plates at room temperature for 30 min followed by reading on EnVision. • 4 Data analysis • 4.1 Inhibition activity is calculated following the formula below:
(§3) [formula] • where HC is obtained from cells treated with 0.1% DMSO only; and LC is obtained from culture medium only. • 4.2 2. Calculate the IC50 by fitting the Curve using Xlfit (v5.3.1.3), equation 201:
(§4) [formula] • The IC50 date are included in Table 6.

The test system of test [3] is BaF3 SVD (EGFR exon 20 SVD Ins D770_N771). The test is described as follows: Ba/F3 cell viability (CellTiter-Glo), EGFR exon 20 SVD Ins D770_N771. It counts as cell-based, murine. As to conditions: Mus musculus, Ba/F3 EGFR exon 20 SVD Ins D770_N771, 72 hours.
Excerpt: as §1, §2, §3, §4

Another test has as its system BaF3 L858R. Description: Ba/F3 cell viability (CellTiter-Glo), EGFR L858R. The class given is cell-based, murine. As to conditions: Mus musculus, 72 hours.
Test [4] concerns BaF3 NPG (EGFR exon 20 NPG Ins D770_N771). The test is described as follows: Ba/F3 cell viability (CellTiter-Glo), EGFR exon 20 NPG Ins D770_N771. It counts as cell-based, murine. Particulars: Mus musculus, Ba/F3 EGFR exon 20 NPG Ins D770_N771, 72 hours.
Excerpt: as §1, §2, §3, §4

In test [5] the test system is EGFR L858R phosphorylation (pEGFR). Description: Inhibitor activity on EGFR phosphorylation (pEGFR AlphaLISA), L858R. The class given is cell-based. Particulars: 2 hours.
Test [6] relates to EGFR phosphorylation (pEGFR) in CUTO14 cells. The test is described as follows: Inhibitor activity on EGFR phosphorylation (pEGFR AlphaLISA), CUTO14 cells. Particulars: 2 hours. It counts as cell-based. The source says: EGFR mutant Ba/F3 cells were generated by transduction with retrovirus containing vectors expressing EGFR exon 20 NPG Ins D770_N771, EGFR exon 20 ASV Ins V769_D770, or EGFR exon 20 SVD Ins D770_N771 genes along with a puromycin selection marker. Transduced cells are selected with puromycin for 7 days and are then be transferred into culture media without Interleukin 3 (IL3). Surviving cells are confirmed to express EGFR by Western blot and maintained as a pool. CUTO14 cells were obtained from Dr. Robert C. Doebele at the University of Colorado. The IC50 data are included in Table 6.
• 1 Cell seeding • 1.1 Cells are harvested from flask into cell culture medium and the cell number counted. • 1.2 Cells are diluted with culture medium to the desired density and 40 μL of cell suspension is added into each well of 384-well cell culture plate and the seeding density is 50K cells/well (Ba/F3) or 12.5K cells/well (CUTO14). • 2 Compound preparation and treatment • 2.1 Test compounds are dissolved to 10 mM in a DMSO stock solution. 45 µL of stock solution is transferred to a 384 polypropylene plate (pp-plate). Perform 3-fold, 10-point dilution via transferring 15 L compound into 30 L DMSO using a TECAN (EVO200) liquid handler. • 2.2 Spin plates at room temperature at 1,000 RPM for 1 minute. • 2.3 Transfer 5 nL of diluted compound from compound source plate into the cell plate. • 2.4 After compound treatment for 2 hours, perform pEGFR detection by AlphaLISA for compound treatment plates as described in “Detection” section. • 3 Detection by pEGFR AlphaLISA (Perkin-Elmer) • 3.1 Plates are removed from incubators and equilibrated at room temperature for 10 minutes, and media was removed • 3.2 10 µL of lysis buffer is added and plates shaken at 600 rpm for 1 hr. • 3.3 Prepare acceptor mix just before use and dispense 5 μL of acceptor mix to all the wells. […] Mix well on the shaker, seal and wrap in aluminum foil and incubate 1.5 hrs at room temperature in the dark • 3.5 Transfer 18.5 μL mixture to OptiPlate 384, and read using an Envision.

For a further test, the system named is BaF3 Del19. Description: Ba/F3 cell viability (CellTiter-Glo), EGFR Del19. The class given is cell-based, murine. Particulars: Mus musculus, 72 hours.
Test [7] deals with EGFR L858R/C797S phosphorylation (pEGFR). Description: Inhibitor activity on EGFR phosphorylation (pEGFR AlphaLISA), L858R/C797S. The class given is cell-based. As to conditions: 2 hours.
The test system of another test is BaF3 WT (EGFR WT). Description: Ba/F3 cell viability (CellTiter-Glo), EGFR WT. It counts as cell-based, murine. Particulars: Mus musculus, supplemental EGF, 72 hours.
Excerpt: as §1, §2, §3, §4

Test [8] relates to EGFR containing one or more mutations versus wild type EGFR. As to conditions: compound of WO 2022/076831; cited from earlier work.

Where only a bound is given, the exact number is not on record here.

For `COCCc1c[nH]c(=O)c2c(Nc3cccc(Cl)c3OC)c(-c3ccncn3)[nH]c12` [Compound 2], the IC50 in test [1] is less than 0.1 µM; in the test on BaF3 L858R/C797S, less than 0.1 µM; in test [2], 0.1 to 1 µM; in [3] it was less than 0.1 µM; in the test with BaF3 L858R, less than 0.1 µM; in test [4], 0.1 to 1 µM. For the same compound, the IC50 is less than 0.1 µM in [5]; less than 0.1 µM in test [6]; less than 0.1 µM in the test with BaF3 Del19; less than 0.1 µM in [7]; not below 1 µM with BaF3 WT (EGFR WT).
Consider `COCCc1c[nH]c(=O)c2c(Nc3cccc(Cl)c3OC)c(-c3ccncc3F)[nH]c12` [Compound 3], for which the IC50 in test [2] was 0.1 to 1 µM; in test [3], 0.1 to 1 µM; in the test on BaF3 L858R, less than 0.1 µM; in the test with BaF3 Del19, less than 0.1 µM; in the test with BaF3 WT (EGFR WT), not below 1 µM.
With `COCCc1c[nH]c(=O)c2c(Nc3cccc(F)c3OC)c(-c3ccnc(C)n3)[nH]c12` [Compound 4], the half-maximal inhibitory concentration (IC50) in test [1] is less than 0.1 µM; with BaF3 L858R/C797S it was less than 0.1 µM; in test [2], 0.1 to 1 µM; in [3], 0.1 to 1 µM; in test [4], 0.1 to 1 µM; in test [5], less than 0.1 µM. Also, the concentration for half-maximal inhibition (IC50) was less than 0.1 µM in test [6], less than 0.1 µM in test [7] and not below 1 µM with BaF3 WT (EGFR WT).
Consider `COc1c(Cl)cccc1Nc1c(-c2ccnc(C)n2)[nH]c2c(CCO)c[nH]c(=O)c12` [Compound 5], for which the half-inhibitory concentration (IC50) in [1] was less than 0.1 µM; in the test on BaF3 L858R/C797S, 0.1 to 1 µM; in [2], 0.1 to 1 µM; in test [3], 0.1 to 1 µM; in the test on BaF3 L858R, less than 0.1 µM; in [4] it was 0.1 to 1 µM. The IC50 in [5] was less than 0.1 µM; in test [6] it was 0.1 to 1 µM; in the test on BaF3 Del19 it was less than 0.1 µM; in [7] it was less than 0.1 µM; with BaF3 WT (EGFR WT), not below 1 µM.
Consider `COc1c(F)cccc1Nc1c(-c2ccnc(C)n2)[nH]c2c(CCO)c[nH]c(=O)c12` [Compound 6], for which the IC50 in test [1] is less than 0.1 µM; in the test on BaF3 L858R/C797S, 0.1 to 1 µM; in test [2] it was not below 1 µM; in test [3], 0.1 to 1 µM; in [4] it was 0.1 to 1 µM; in test [5] it was 0.1 to 1 µM. The IC50 in test [7] is less than 0.1 µM; in the test on BaF3 WT (EGFR WT) it was not below 1 µM.
Consider `COCC[C@H]1CNC(=O)c2c1[nH]c(-c1ccnc(C)n1)c2Nc1cccc(Cl)c1OC` [Compound 463b], for which the “inhibition of mutant EGFR relative to wild type EGFR” value in test [8] is on record as “greater inhibition of EGFR containing one or more mutations relative to inhibition of wild type EGFR”.

Broadly, the IC50 is the concentration at which inhibition is half-maximal. A higher IC50 goes with weaker potency in that assay.

Source of the values: patent US20260297088A1, “A 1,5-DIHYDRO-4H-PYRROLO[3,2-C] PYRIDIN-4-ONE FOR USE IN THE TREATMENT OF CANCER” (ANTARES THERAPEUTICS, INC., priority 2023, published 2026).
